Where two headings read alike, the source gives them in different places.
Columns and labels:
[1] = design: method as in Fong et al, 1999; settings: preclinical models, intracellular; ref Fong et al, 1999; cited from earlier work
[2] = cited from earlier work
[3] = Plasma pharmacokinetics of SU5416 and metabolites in Phase I patients (HPLC UV); assay type: in vivo, human; settings: for Vd / AUC(0-t) / clearance / half-life / Cmax / AUC: human; for half-life: read-out: T1/2λz (converted); for Cmax: read-out: Cmax
Description: Samples were taken prior to treatment infusion, 15 min into the infusion, at completion of the infusion and then at 5, 10, 20, 30, 45, 60, 120 and 240 min following the infusion. […] At the designated times, 4.0 ml of blood were collected into a lithium heparin tube, gently inverted and placed on ice to maintain the sample at 2–8°C. All samples were immediately centrifuged at 6000 r.p.m. at 4°C for 10 min, the supernatant divided between two 1.5 ml Nalgene cryovials and snap frozen in liquid nitrogen. Separated plasma samples were subsequently stored at −70°C until analysis.
Pharmacokinetic analysis was performed using a fully validated HPLC UV method ([Stopeck et al, 2002]). Plasma samples, standards (25–2000 ng ml^−1) and quality controls spiked with internal standards were extracted with acetonitrile. Following centrifugation, drying and reconstitution in 200 μl mobile phase, 20 μl were analysed by HPLC UV. Chromatography was carried out using a C18 analytical column, with a gradient mobile phase containing acetonitrile and 10 mM ammonium formate at pH 2.6. The flow rate was 0.8 ml min^−1 and the run-time 21 min. Detection was via UV absorption at a wavelength of 440 nm. The accuracy of the assay, reflected in relative error of measured concentration to theoretical (prepared) concentrations, was between 0.9 and 5.6% for all quality control samples.
Pharmacokinetic parameters were evaluated using WinNonLin Software®.

[4] = in vivo, iv, 145 mg m^−2, individual patients, twice weekly i.v. infusion, dose 145 mg m^−2, cycle 1inj8
[5] = in vivo, iv, 145 mg m^−2, individual patients, twice weekly i.v. infusion, dose 145 mg m^−2, cycle 2inj8
[6] = in vivo, iv, individual patients, twice weekly i.v. infusion, dose 145 → 190 mg m^−2, cycle 2inj1
[7] = in vivo, iv, individual patients, twice weekly i.v. infusion, dose 145 → 190 mg m^−2, cycle 2inj8
[8] = in vivo, iv, individual patients, twice weekly i.v. infusion, dose 145 → 190 mg m^−2, cycle 3inj2
[9] = plasma, iv, 48 mg m^−2, individual patients, twice weekly i.v. infusion, dose 48 mg m^−2, cycle 1inj2
[10] = plasma, iv, 48 mg m^−2, individual patients, twice weekly i.v. infusion, dose 48 mg m^−2, cycle 1inj8
[11] = plasma, iv, 48 mg m^−2, individual patients, twice weekly i.v. infusion, dose 48 mg m^−2, cycle 2inj8
[12] = plasma, iv, 65 mg m^−2, individual patients, twice weekly i.v. infusion, dose 65 mg m^−2, cycle 1inj2
[13] = plasma, iv, 65 mg m^−2, individual patients, twice weekly i.v. infusion, dose 65 mg m^−2, cycle 1inj3
[14] = plasma, iv, 65 mg m^−2, individual patients, twice weekly i.v. infusion, dose 65 mg m^−2, cycle 1inj8
[15] = plasma, iv, 85 mg m^−2, individual patients, twice weekly i.v. infusion, dose 85 mg m^−2, cycle 1inj2

Cc1cc(C)c(/C=C2\C(=O)Nc3ccccc32)[nH]1 [SU5416, Z-3-[(2,4-dimethylpyrrol-5-yl)methylidenyl]-2-indolinone]
time for which levels capable of target inhibition are maintained [1]: > 48 h | degree of induction of SU5416 metabolism ([2]; same schedule, sampling from day 1, ref Cropp et al, 1999, Rosen et al): 69% | dose at which DLT (projectile vomiting and severe headache) was reported ([2]; same twice weekly schedule, ref Rosen et al, 1999): 190 mg m^−2 | average increase in drug clearance ([3]; day 4 vs day 25, five of the nine patients dosed at the same level on both days): 22% | dose linearity of kinetics ([3]; dose range 48–145 mg m^−2, initial assessment and day 25): linear kinetics | Vd ([3]; in vivo, iv, 48 mg m^−2, individual patients, twice weekly i.v. infusion, dose 48 mg m^−2, cycle 1inj2, read-out: Vz (observed)): 142 L | AUC(0-t) ([3]; in vivo, iv, 48 mg m^−2, individual patients, twice weekly i.v. infusion, dose 48 mg m^−2, cycle 1inj8): 816 ng·h/mL | clearance ([3]; in vivo, iv, 85 mg m^−2, individual patients, twice weekly i.v. infusion, dose 85 mg m^−2, cycle 1inj8, read-out: CL (observed) (converted)): 2520 mL/min | half-life ([3]; in vivo, iv, 145 mg m^−2, individual patients, twice weekly i.v. infusion, dose 145 mg m^−2, cycle 1inj2): 52.2 min | AUC(0-t) [3, 4]: 4430 ng·h/mL | Cmax [3, 4]: 3920 ng/mL | half-life [3, 4]: 34.2 min | AUC(0-t) [3, 5]: 1780 ng·h/mL | clearance ([3]; in vivo, iv, 145 mg m^−2, individual patients, twice weekly i.v. infusion, dose 145 mg m^−2, cycle 2inj8, read-out: CL (observed) (converted)): 3730 mL/min | Cmax [3, 5]: 1340 ng/mL | half-life [3, 5]: 43.2 min | Vd ([3]; in vivo, iv, 145 mg m^−2, individual patients, twice weekly i.v. infusion, dose 145 mg m^−2, cycle 2inj8, read-out: Vz (observed)): 233 L | AUC(0-t) [3, 6]: 6450 ng·h/mL | clearance ([3]; in vivo, iv, individual patients, twice weekly i.v. infusion, dose 145 → 190 mg m^−2, cycle 2inj1, read-out: CL (observed) (converted)): 817 mL/min | Cmax [3, 6]: 4000 ng/mL | half-life [3, 6]: 46.2 min | Vd ([3]; in vivo, iv, individual patients, twice weekly i.v. infusion, dose 145 → 190 mg m^−2, cycle 2inj1, read-out: Vz (observed)): 54 L | AUC(0-t) [3, 7]: 5040 ng·h/mL | clearance ([3]; in vivo, iv, individual patients, twice weekly i.v. infusion, dose 145 → 190 mg m^−2, cycle 2inj8, read-out: CL (observed) (converted)): 1320 mL/min | Cmax [3, 7]: 3340 ng/mL | half-life [3, 7]: 43.2 min | Vd ([3]; in vivo, iv, individual patients, twice weekly i.v. infusion, dose 145 → 190 mg m^−2, cycle 2inj8, read-out: Vz (observed)): 82 L | AUC(0-t) [3, 8]: 7170 ng·h/mL | clearance ([3]; in vivo, iv, individual patients, twice weekly i.v. infusion, dose 145 → 190 mg m^−2, cycle 3inj2, read-out: CL (observed) (converted)): 733 mL/min | Cmax [3, 8]: 6520 ng/mL | half-life [3, 8]: 45 min | Vd ([3]; in vivo, iv, individual patients, twice weekly i.v. infusion, dose 145 → 190 mg m^−2, cycle 3inj2, read-out: Vz (observed)): 48 L | clearance ([3]; in vivo, range over the 25 evaluable patients, read-out: Plasma clearance (CL)): 767 to 3580 mL/min | Vd ([3]; in vivo, range over the 25 evaluable patients, read-out: volume of distribution (Vd)): 39 to 215 L | AUC ([3]; in vivo, at 145 mg m^−2): 3720 ± 930 ng·h/mL | AUC ([3]; in vivo, at 190 mg m^−2 in patients escalated from 145 mg m^−2 after 2 weeks): 3610 ± 183 ng·h/mL | Cmax [3, 9]: 1740 ng/mL | half-life [3, 9]: 32.4 min | Vd ([3]; plasma, iv, 48 mg m^−2, individual patients, twice weekly i.v. infusion, dose 48 mg m^−2, cycle 1inj2, read-out: Vz (observed)): 69 L | AUC(0-t) [3, 10]: 630 ng·h/mL | clearance ([3]; plasma, iv, 48 mg m^−2, individual patients, twice weekly i.v. infusion, dose 48 mg m^−2, cycle 1inj8, read-out: CL (observed) (converted)): 2080 mL/min | Cmax [3, 10]: 2060 ng/mL | half-life [3, 10]: 36.6 min | Vd ([3]; plasma, iv, 48 mg m^−2, individual patients, twice weekly i.v. infusion, dose 48 mg m^−2, cycle 1inj8, read-out: Vz (observed)): 109 L | AUC(0-t) [3, 11]: 498 ng·h/mL | clearance ([3]; plasma, iv, 48 mg m^−2, individual patients, twice weekly i.v. infusion, dose 48 mg m^−2, cycle 2inj8, read-out: CL (observed) (converted)): 2630 mL/min | Cmax [3, 11]: 1630 ng/mL | half-life [3, 11]: 34.2 min | Vd ([3]; plasma, iv, 48 mg m^−2, individual patients, twice weekly i.v. infusion, dose 48 mg m^−2, cycle 2inj8, read-out: Vz (observed)): 131 L | AUC(0-t) [3, 12]: 1500 ng·h/mL | clearance ([3]; plasma, iv, 65 mg m^−2, individual patients, twice weekly i.v. infusion, dose 65 mg m^−2, cycle 1inj2, read-out: CL (observed) (converted)): 1070 mL/min | Cmax [3, 12]: 4370 ng/mL | half-life [3, 12]: 27 min | AUC(0-t) [3, 13]: 566 ng·h/mL | clearance ([3]; plasma, iv, 65 mg m^−2, individual patients, twice weekly i.v. infusion, dose 65 mg m^−2, cycle 1inj3, read-out: CL (observed) (converted)): 3170 mL/min | Cmax [3, 13]: 2070 ng/mL | half-life [3, 13]: 12 min | Vd ([3]; plasma, iv, 65 mg m^−2, individual patients, twice weekly i.v. infusion, dose 65 mg m^−2, cycle 1inj3, read-out: Vz (observed)): 55 L | AUC(0-t) [3, 14]: 1310 ng·h/mL | clearance ([3]; plasma, iv, 65 mg m^−2, individual patients, twice weekly i.v. infusion, dose 65 mg m^−2, cycle 1inj8, read-out: CL (observed) (converted)): 1230 mL/min | Cmax [3, 14]: 4100 ng/mL | half-life [3, 14]: 43.8 min | Vd ([3]; plasma, iv, 65 mg m^−2, individual patients, twice weekly i.v. infusion, dose 65 mg m^−2, cycle 1inj8, read-out: Vz (observed)): 78 L | AUC(0-t) [3, 15]: 1810 ng·h/mL | clearance ([3]; plasma, iv, 85 mg m^−2, individual patients, twice weekly i.v. infusion, dose 85 mg m^−2, cycle 1inj2, read-out: CL (observed) (converted)): 1320 mL/min | Cmax [3, 15]: 2340 ng/mL

Source: publication PMC2361651 (British Journal of Cancer, 2005)
